Data: ChEMBL document CHEMBL1145233, “Design, synthesis and evaluation of 5-substituted amino-2,4-diamino-8-chloropyrimido-[4,5-b]quinolines as novel antimalarials” (2005)

Key:
Format in all cases: functional
[1] = test system: Mus musculus; experiment: In vivo antimalarial activity of compound against Plasmodium berghei in mice (Mus musculus) expressed as mean survival time at 40 mg/kg
[2] = test system: Mus musculus; experiment: In vivo antimalarial activity of compound against Plasmodium berghei in mice (Mus musculus) expressed as mean survival time at 80 mg/kg
[3] = test system: Mus musculus; experiment: In vivo antimalarial activity of compound against Plasmodium berghei in mice (Mus musculus) expressed as mean survival time at 160 mg/kg
[4] = test system: Mus musculus; experiment: In vivo antimalarial activity of compound against Plasmodium berghei in mice (Mus musculus) expressed as mean survival time at 20 mg/kg

Row | Structure (SMILES) | Survival time [1] [days] | Survival time [2] [days] | Survival time [3] [days] | Survival time [4] [days]
1 | CCN(CC)c1cc(Nc2c3ccc(Cl)cc3nc3nc(N)nc(N)c23)ccc1O | 13 | 15 | 14 | 12
2 | CCN(CC)c1cc(Nc2c3ccc(Cl)cc3nc3nc(N)nc(N)c23)cc(N(CC)CC)c1O | >60 | >60 | >60 | >60
3 | Nc1nc(N)c2c(Nc3cc(CN4CCCC4)c(O)c(CN4CCCC4)c3)c3ccc(Cl)cc3nc2n1 | >60 | >60 | >60 | >60
4 | Nc1nc(N)c2c(Nc3ccc(O)c(CN4CCCC4)c3)c3ccc(Cl)cc3nc2n1 | 20 | 25 | 26 | 15
5 | CCN(COOC(C)(C)C)c1c2ccc(Cl)cc2nc2nc(N)nc(N)c12 | 12 | 14 | 15 | 13
6 | Nc1nc(N)c2c(Nc3ccc(S(=O)(=O)Nc4ccccn4)cc3)c3ccc(Cl)cc3nc2n1 | 14 | 15 | 13 | 11
7 | CN(COOC(C)(C)C)c1c2ccc(Cl)cc2nc2nc(N)nc(N)c12 | 30 | 20 | 14 | 28
8 | Nc1nc(N)c2c(N)c3ccc(Cl)cc3nc2n1 | 16 | 18 | 20 | 15
9 | COc1ncnc(NS(=O)(=O)c2ccc(Nc3c4ccc(Cl)cc4nc4nc(N)nc(N)c34)cc2)c1OC | >60 | >60 | >60 | >60
10 | Nc1nc(N)c2c(Nc3ccc(S(N)(=O)=O)cc3)c3ccc(Cl)cc3nc2n1 | 13 | 15 | 14 | 12
11 | CCN(CC)CCCC(C)Nc1ccnc2cc(Cl)ccc12 (stereo unspecified) [CHLOROQUINE] |  |  |  | 15
